Target: tyrosinase from Agaricus bisporus (AbTYR) (Agaricus bisporus, UniProt C7FF04)
Test: diphenolase inhibition of AbTYR (L-DOPA substrate, absorbance at 475 nm)
Assay type: biochemical
Conditions: diphenolase activity
Protocol: Mushroom tyrosinase (EC 1.14.18.1) was supplied by Merck (Cat. No. T3824). In vitro assay was performed according to the method of Mirabile et al.. Each sample (0.05 mL) at different concentrations (0.10–200 μM) was mixed with 0.5 mL of L-DOPA solution (1.25 mM) and 0.9 mL of phosphate buffer solution (pH 6.8). After a 10 min incubation at 25 °C, 0.05 mL of an aqueous solution of the enzyme was added to the mixture. […] The inhibition rate was calculated with the following mathematical equation:Inhibition % = (A − B/A) × 100 where A = absorbance of negative control and B = absorbance of test sample. Finally, IC50 values were determined by interpolation of the dose–response curves.

Sequence of tyrosinase from Agaricus bisporus (AbTYR) (C7FF04 2-392): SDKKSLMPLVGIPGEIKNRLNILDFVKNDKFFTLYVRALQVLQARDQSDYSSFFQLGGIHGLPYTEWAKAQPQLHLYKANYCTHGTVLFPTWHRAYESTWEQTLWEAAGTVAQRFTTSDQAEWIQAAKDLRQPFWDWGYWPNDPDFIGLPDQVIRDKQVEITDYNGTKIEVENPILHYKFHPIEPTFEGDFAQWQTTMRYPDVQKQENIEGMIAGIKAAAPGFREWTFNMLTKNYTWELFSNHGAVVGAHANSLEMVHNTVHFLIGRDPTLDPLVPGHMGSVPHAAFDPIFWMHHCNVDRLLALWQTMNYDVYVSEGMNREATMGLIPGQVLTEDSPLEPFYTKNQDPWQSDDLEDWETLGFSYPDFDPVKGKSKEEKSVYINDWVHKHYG

| Compound | AbTYR inhibitory effect, result in words |
| --- | --- |
| Nn1c(SCc2ccc(F)cc2Cl)nnc1-c1ccncc1 [3c, 3-((2-Chloro-4-fluorobenzyl)thio)-5-(pyridin-4-yl)-4H-1,2,4-triazol-4-amine] | inhibitory effects dramatically disappeared |

System: not given
Test: not given
Conditions: not given

| Compound | melting point [°C] |
| --- | --- |
| O=C(c1ccc(Cl)cc1Cl)N1CCN(Cc2ccc(F)c(Cl)c2)CC1 [1d, (4-(3-Chloro-4-fluorobenzyl)piperazin-1-yl)(2,4-dichlorophenyl)methanone] | 121 to 124 |
| O=C(c1cc(F)ccc1C(F)(F)F)N1CCN(Cc2ccc(F)c(Cl)c2)CC1 [1e, (4-(3-Chloro-4-fluorobenzyl)piperazin-1-yl)(5-fluoro-2-(trifluoromethyl)phenyl)methanone] | 133 to 135 |
| O=C(c1cc2ccccc2s1)N1CCN(Cc2ccc(F)c(Cl)c2)CC1 [1f, Benzo[b]thiophen-2-yl(4-(3-chloro-4-fluorobenzyl)piperazin-1-yl)methanone] | 111 to 113 |
| O=C(CN1CCN(Cc2ccc(F)c(Cl)c2)CC1)N1CCN(c2ccc(O)cc2)CC1 [2c, 2-(4-(3-Chloro-4-fluorobenzyl)piperazin-1-yl)-1-(4-(4-hydroxyphenyl)piperazin-1-yl)ethanone] | 165 to 168 |
| CC(C(=O)N1CCN(c2ccc(O)cc2)CC1)N1CCN(Cc2ccc(F)c(Cl)c2)CC1 (stereo not shown) [2d, 2-(4-(3-Chloro-4-fluorobenzyl)piperazin-1-yl)-1-(4-(4-hydroxyphenyl)piperazin-1-yl)propan-1-one] | 172 to 174 |
| Nn1c(SCc2ccc(F)c(Cl)c2)nnc1-c1ccncc1 [3b, 3-(3-Chloro-4-fluorobenzylthio)-5-(pyridin-4-yl)-4H-1,2,4-triazol-4-amine] | 164 to 165 |
| Nn1c(SCc2ccc(F)cc2Cl)nnc1-c1ccncc1 [3c, 3-((2-Chloro-4-fluorobenzyl)thio)-5-(pyridin-4-yl)-4H-1,2,4-triazol-4-amine] | 171 to 172 |
| Nn1c(SCc2ccc(F)c(Cl)c2)nnc1-c1ccccc1 [3d, 3-(3-Chloro-4-fluorobenzylthio)-5-phenyl-4H-1,2,4-triazol-4-amine] | 164 to 166 |
| c1ccc(SCSc2ccccc2)cc1 [4b, Phenylsulfanylmethylsulfanylbenzene] | 34 to 35 |
